Values of other authors, collected in patent US7163956B2, “Substituted fullerene compositions and their use as antioxidants” (C Sixty Inc., priority 2003, dated 2007).

Test system: mice
Conditions: oral administration, about 0.5 mg/kg/day

For (C60(>C(COOH)2)3) [C3], the “increase in mean survival relative to controls” value is listed as ~20% and the mean survival (controls 23.5+/−5.5 months, p=0.033) is listed as 28.7+/−3.3 months.
